Reference: patent US6472213B1, “Shuttle vectors for the introduction of DNA into mycobacteria and utilization of such bacteria as vaccines” (Institut National de la Sante et de la Recherche Medicale …, priority 1994, dated 2002)

What was measured:
Assay type in all cases: cell-based, M. smegmatis, M. bovis BCG, M. tuberculosis
[1] = tested on: pVN2-carrying mycobacteria
[2] = tested on: non-transformed control mycobacteria
[3] = tested on: mycobacteria carrying the plasmid pMR001

[Cl][Hg][Cl] [HgCl2]
Phenotypes of resistance to mercury [1]: R | level of resistance [1]: 40 mg/mL | Phenotypes of resistance to mercury [2]: S | Phenotypes of resistance to mercury [3]: R
